Test [1] has as its system velvetleaf. The experiment in a line: Test A preemergence. In kind it is in vivo, Abutilon theophrasti. The essentials:
(§1)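 Scoring: eye-based comparison with untreated controls, 0 for no effect through 100 for complete control, at about day 10. Treatments: directed soil spray preemergence; foliar spray postemergence on 2–10 cm plants at the one- to two-leaf stage. Medium: loam soil with sand.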

For test [2], the system named is large (Lg) crabgrass. Put plainly: Test A preemergence. It is filed as in vivo, Digitaria sanguinalis. The essentials:
as §1

The subject of test [3] is pigweed. Put plainly: Test A postemergence. In kind it is in vivo, Amaranthus retroflexus. In outline:
as §1

For test [4], the system named is Heteranthera limosa. Put plainly: Test B flooded paddy test. The note with it: Flood, 250 g ai/ha, 0 to 100 scale where 0 is no effect and 100 is complete control. It is filed as in vivo. In outline:
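Visual ratings on a 0 to 100 scale, where 100 means complete control, compared treated plants with controls after 13 to 15 days in a greenhouse. Treatment went into paddy water 3 cm deep over the soil, applied to plants at the 2-leaf stage.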

The test system of test [5] is giant foxtail. The experiment in a line: Test A preemergence. It is filed as in vivo, Setaria faberii. The essentials: as §1
Where [6] appears, read: 125 g ai/ha, 0 to 100 scale where 0 is no effect and 100 is complete control.
Where [7] appears, read: 500 g ai/ha, 0 to 100 scale, 0 no effect, 100 complete control, approx. 10 days.

As to `FC(F)(F)c1ccn(-c2ccccc2Oc2ncc(Cl)cn2)n1` [Compound 2, 5-chloro-2-[2-[3-(trifluoromethyl)-1H-pyrazol-1-yl]phenoxy]pyrimidine], the pest or weed control at 125 g/ha in test [1] (Abutilon theophrasti, pre-emergence, 240 h, 125 g ai/ha, 0 to 100 scale where 0 is no effect and 100 is complete control, read-out: Velvetleaf plant response rating) was 30%; in test [2] (Digitaria sanguinalis, pre-emergence, 240 h, 125 g ai/ha, 0 to 100 scale where 0 is no effect and 100 is complete control, read-out: Crabgrass, Large plant response rating), 80%; in test [3] (Amaranthus retroflexus, post-emergence, 125 g ai/ha, 0 to 100 scale where 0 is no effect and 100 is complete control, read-out: Plant response rating, Pigweed), 60%; in test [5] (Setaria faberi, pre-emergence, 240 h, 125 g ai/ha, 0 to 100 scale where 0 is no effect and 100 is complete control, read-out: Foxtail, Giant plant response rating) it was 80%. The pest or weed control at 500 g/ha in test [1] (Abutilon theophrasti, pre-emergence, 240 h, 500 g ai/ha, 0 to 100 scale, 0 no effect, 100 complete control, approx. 10 days, read-out: Velvetleaf plant response rating) came out at 70%; in test [2] (Digitaria sanguinalis, pre-emergence, 240 h, 500 g ai/ha, 0 to 100 scale, 0 no effect, 100 complete control, approx. 10 days, read-out: Crabgrass, Large plant response rating), 100%; in test [3] (Amaranthus retroflexus, post-emergence, 240 h, 500 g ai/ha, 0 to 100 scale, 0 no effect, 100 complete control, read-out: Plant response rating Pigweed) it was 100%; in test [5] (Setaria faberi, pre-emergence, 240 h, 500 g ai/ha, 0 to 100 scale, 0 no effect, 100 complete control, approx. 10 days, read-out: Foxtail, Giant plant response rating), 100%. The pest or weed control at 250 g/ha in test [4] (Heteranthera limosa, read-out: Plant response rating, Ducksalad) turned out to be 45%.

As to `Clc1cnc(Oc2ccccc2-n2cc(Cl)cn2)nc1` [Compound 3], the “Velvetleaf plant response rating” value in test [1] (setting [6]) came out at 70; in test [1] (setting [7]), 90. The “Crabgrass, Large plant response rating” value in test [2] (setting [6]) is reported as 90; in test [2] (setting [7]), 100. Further, the “Plant response rating, Pigweed” value is reported as 90 in test [3] (setting [6]) and 100 in test [3] (500 g ai/ha, 0 to 100 scale, 0 no effect, 100 complete control). In addition, the “Plant response rating, Ducksalad” value in test [4] is 90. Further, the “Foxtail, Giant plant response rating” value in test [5] (setting [6]) was determined as 90; in test [5] (setting [7]), 100.

The record behind these values is US9695155B2, “Herbicidal substituted pyrimidinyloxy benzene compounds” (E. I. DU PONT DE NEMOURS AND COMPANY, priority 2013, dated 2017).
